Experiments:
nursery pigs [1] = experiment: Example 1: lactose level and acidifying agent in nursery pig diets, growth performance (BW, ADG, ADFI, GF); assay type: in vivo; conditions: for feed intake: Phase I; for average daily feed intake (ADFI): Phase II
Excerpt: The following study was designed to determine whether a feed supplement comprising an acidifying agent could counteract the negative effects of lower levels of lactose in nursery pigs. A two-phase feeding program, with and without an acidifying agent comprising 2-hydroxy-4-methylthiobutanoic acid, fumaric acid, and benzoic acid (i.e., as provided by ACTIVATE® DA, Novus Intl), was implemented with industry norms for energy, digestible amino acids, vitamins, and minerals. The two-phase feeding program introduced ingredients in a progressive way to gently enhance maturation of the gastrointestinal system, while at the same time supplying special ingredients that should encourage maximal growth performance. The pigs were fed a Phase I diet from weaning to 10 days post weaning, and a Phase II diet from days 11 to 21 post weaning. The levels of lactose were varied in each diet phase and each level of lactose was examined with and without the acidifying agent.
A total of approximately 840 commercial breed nursery pigs (TR-4X C22 PIC lines, PIC Intl., Franklin, Ky.) were blocked by weight and sex, and then placed into a pen containing about 20-22 pigs per pen. There were a total of 42 pens that were used for 7 replications/treatment with approximately equal numbers of pens per sex/treatment. Treatments were randomly assigned to pens within a room prior to treatment initiation. Each pen was accounted as an experimental unit. The animals were cared for according to standard site practices, which include daily observations, temperature monitoring, feeder observations, and waterer observations.
Diets were balanced to meet 60 TID Met & Cys:Lys. The ideal amino acid ratio of Thr, Tryp, Ile, and Val to Lys was maintained at a minimum of 65%, 16%, 55%, and 65%, respectively, based on the TID ideal amino acid profile for swine. Diets that included the acidifying agent used MHA (DL-methionine hydroxyl analog) to balance for the methionine source, while diets without the acidifying agent used DL-Met as a methionine source. All diets were balanced to have equivalent methionine activity and properly mixed according to the diet formulations presented in Table 1 and Table 2 for Phase I, and Table 4 and Table 5 for Phase II. Calculated analyses of the diets are presented in Tables 3 and 6 for Phase I and II, respectively.
The treatment arrangements were a 3×2 factorial arrangement with three levels of lactose with and without the acidifying agent (i.e., ACTIVATE® DA at a 0.5%). Diets were formulated to provide 5%, 10%, or 20% lactose equivalent during Phase I (0 to 10 days post weaning) and 2.5%, 5%, or 10% lactose equivalent during Phase II (11 to 21 days post weaning). The lactose equivalent was provided by […]-80® (80% lactose content; International Ingredient Corporation, St. Louis, Mo.). Fishmeal and SDPP were held constant across the diets, and corn and CWG were allowed to float to provide similar energy levels. All diets were supplemented with the enteric antibiotic carbodox (i.e., MECADOX®, Phibro Animal Health, Ridgefield Park, N.J.).
The animals were observed daily including weekends and holidays. Any abnormal observations or mortalities were recorded by pen with weight and date. The body weights of the pigs were collected initially and at the end of each phase. The feed intake was collected for each phase of growth. Feed offered was measured by weighing each amount of feed used for each pen. Feed refused was measured by weighing the amount of feed left in the feeder and any remainder that had previously been recorded as feed offered.
Data were analyzed by analysis of variance procedures appropriate for a randomized block design using the General Linear Models procedure of SAS. Differences of least squares means for treatments from control pigs were determined using a least square comparison.

nursery pigs [2] = experiment: Example 4: organic trace minerals and antibiotics with GEM blend in low lactose diets, nursery pig performance (BW, ADG, ADFI, GF); assay type: in vivo; conditions: Phase I, 0 to 7 days post weaning; regardless of lactose level; P<0.07
Description: Forty-two pens of pigs with about 20-25 pigs/pen blocked by weight were used. Pig body weights were collected initially (day 0) and at the end of each phase (days 7 and 21 post weaning). Feed consumption was measured from days 0-7 (Phase I) and from days 8-21 (Phase II) post weaning. Growth rate was calculated as average daily gain (ADG), daily feed intake was calculated as average daily feed intake (ADFI) and feed efficiency was calculated as the ratio of gain:feed (GF).
Phase I was from day 0 to 7 post weaning and Phase II was from day 8 to 21 post weaning. Composition and analysis of the experimental diets used in Phase I are described in Tables 18 and 19, respectively. Composition and analysis of the experimental diets used in Phase II are described in Tables 20 and 21, respectively. Diets in treatments 1 and 6 contained the high lactose levels of 20% and 10% in Phase I and II, respectively. All other treatments had diets containing the low lactose levels of 5% and 2.5% in Phase I and II, respectively. Antibiotic, GEM blend and OTM treatments during the two phases were as follows:
Phase I (0 to 7 Days): • 1. High lactose (20%)+enteric antibiotic. • 2. Low lactose (5%)+enteric antibiotic. • 3. Low lactose (5%)+enteric antibiotic+GEM blend. • 4. Low lactose (5%)+enteric antibiotic+OTM. • 5. Low lactose (5%)+enteric antibiotic+OTM+GEM blend. • 6. […]

Compound | feed intake (nursery pigs [1]; high level of lactose (20%)) | feed intake (nursery pigs [1]; intermediate level of lactose (10%)) | feed intake (nursery pigs [1]; lowest level of lactose (5%)) | average daily feed intake (ADFI) (nursery pigs [1]; highest lactose level (10%)) | average daily feed intake (ADFI) (nursery pigs [1]; intermediate lactose level (5%)) | average daily feed intake (ADFI) (nursery pigs [1]; lowest lactose level ([…])) | feed intake (nursery pigs [2])
OC[C@H]1O[C@@H](O[C@H]2[C@H](O)[C@@H](O)C(O)O[C@@H]2CO)[C@H](O)[C@@H](O)[C@H]1O (stereo partly shown) [lactose] | 146 g/day | 150 g/day | 132 g/day | 408 g/day | 400 g/day | 384 g/day | –
COC(=O)N/N=C/c1c[n+]([O-])c2ccccc2[n+]1[O-] [enteric antibiotic, carbodox] | – | – | – | – | – | – | 179 g/day

Reference: patent publication US20110008388A1, “PIGLET FEED RATIONS HAVING LOW LEVELS OF FERMENTABLE CARBOHYDRATES” (NOVUS INTERNATIONAL INC., priority 2007, published 2011)
